# Data as given in PMC5421464, “Characterization of the single-subunit oligosaccharyltransferase STT3A from Trypanosoma brucei using synthetic peptides and lipid-linked oligosaccharide analogs” (Glycobiology, 2017).
# T1: TbSTT3A (Trypanosoma brucei, UniProt Q57W34)
# T1 sequence (Q57W34 1-801): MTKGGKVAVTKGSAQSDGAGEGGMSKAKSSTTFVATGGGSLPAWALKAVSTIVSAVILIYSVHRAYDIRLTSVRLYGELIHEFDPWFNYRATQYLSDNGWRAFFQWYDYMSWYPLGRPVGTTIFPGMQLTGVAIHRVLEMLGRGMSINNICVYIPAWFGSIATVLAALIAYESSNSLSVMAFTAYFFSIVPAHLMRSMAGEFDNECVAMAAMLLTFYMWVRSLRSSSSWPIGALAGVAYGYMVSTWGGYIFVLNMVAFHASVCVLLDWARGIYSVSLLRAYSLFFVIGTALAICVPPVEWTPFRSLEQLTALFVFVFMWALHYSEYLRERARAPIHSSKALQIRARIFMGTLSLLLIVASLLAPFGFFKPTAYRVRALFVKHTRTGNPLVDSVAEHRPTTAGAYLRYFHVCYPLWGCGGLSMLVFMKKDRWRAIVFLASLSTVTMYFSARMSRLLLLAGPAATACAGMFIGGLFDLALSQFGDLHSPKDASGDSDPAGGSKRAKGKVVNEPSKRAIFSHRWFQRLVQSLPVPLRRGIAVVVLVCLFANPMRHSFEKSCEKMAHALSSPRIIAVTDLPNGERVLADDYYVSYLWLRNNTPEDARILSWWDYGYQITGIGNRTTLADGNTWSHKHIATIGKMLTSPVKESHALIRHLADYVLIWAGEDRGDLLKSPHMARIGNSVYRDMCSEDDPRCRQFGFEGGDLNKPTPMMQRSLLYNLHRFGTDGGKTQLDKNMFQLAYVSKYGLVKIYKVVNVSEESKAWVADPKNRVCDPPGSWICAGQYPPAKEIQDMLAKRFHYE
# B1: TbSTT3A (Trypanosoma brucei brucei TREU927) (protein)
# chain: T1 sequence (Q57W34 1-801)
# Legend:
# [1] = system: bacterial flippase PglK; design: method as in Perez et al. 2015; conditions: in detergent; ref Perez et al. 2015; cited from earlier work
# [2] = target: T1, TbSTT3A; assay: In vitro glycosylation assay, turnover rate of acceptor peptides (Tricine SDS-PAGE fluorescence); assay type: biochemical; conditions: 50 µM donor, overnight incubation, vast excess substrate
# Experimental: Fig. 2. Optimization of the acceptor peptide sequence. (A) Synthetic acceptor peptides are shown in single letter code. The acceptor asparagine (zero position of the sequon) is indicated in red. Glycosylation experiments were performed and the fluorescently labeled substrate (G0) and product (G1) were quantified following Tricine SDS-PAGE analysis. (B) Turnover rates after fitting the time points by linear regression using PRISM. Error bars indicate standard error of the fitting. (C) Kinetic analysis of substrate peptides: glycosylation experiments were performed with 20 nM purified TbSTT3A, 50 µM farnesyl-PP-chitobiose, 10 mM MnCl2, 150 mM NaCl, 20 mM Hepes pH 7.5, 0.035% DDM, 0.007% CHS and different concentrations of peptides varying from 2 to 60 µM. Data points reflect the mean of three separate measurements. Error bars indicate standard deviations. Data were fitted by nonlinear regression according to the Michaelis–Menten formula using PRISM. This figure is available in black and white in print and in color at Glycobiology online.
# Reaction mixtures contained 20 nM purified TbSTT3A protein, 50µM farnesyl-PP-GlcNAc or farnesyl-PP-chitobiose, 10 mM MnCl2, 150 mM NaCl, 20 mM Hepes pH 7.5, 0.035% DDM, 0.007% CHS and 20 µM of the peptide. Reactions were incubated at 30°C. Samples were taken at different time points and reactions were stopped by the addition of 4X SDS Laemmli buffer. Samples were diluted 200-fold prior to analysis by Tricine SDS-PAGE consisting of a 16% resolving gel with 6 M urea, a 10% spacer gel and a 4% stacking gel ([Schägger 2006]). Fluorescent bands for peptide and glycopeptide were visualized by using a Typhoon Trio Plus imager (GE Healthcare) with excitation set at 488 nm and using a 526 nm SP emission filter. The amount of formed glycopeptide was determined from band intensities of fluorescence gel scans (ImageJ) ([Gerber et al. 2013]). Turnover rate determination was performed by fitting of the data to linear regression using PRISM software.
# Supplementary Figure 2: Glycosylation Assays with farnesyl-PP-GlcNAc. In vitro glycosylation experiments were performed with 20nM purified TbStt3A purified protein, 50µM Farnesyl-PP-GlcNAc or Farnesyl-PP-GlcNac2, 10 mM MnCl2, 150 mM NaCl, 20 mM Hepes pH 7.5, 0.035% DDM, 0.007% CHS and 10 µM of the peptide P1.
# [3] = target: PglB (Campylobacter lari, UniProt B9KDD4); assay: In vitro substrate test with PglB; assay type: biochemical; conditions: data not shown
# Chain of PglB (B9KDD4 whole entry): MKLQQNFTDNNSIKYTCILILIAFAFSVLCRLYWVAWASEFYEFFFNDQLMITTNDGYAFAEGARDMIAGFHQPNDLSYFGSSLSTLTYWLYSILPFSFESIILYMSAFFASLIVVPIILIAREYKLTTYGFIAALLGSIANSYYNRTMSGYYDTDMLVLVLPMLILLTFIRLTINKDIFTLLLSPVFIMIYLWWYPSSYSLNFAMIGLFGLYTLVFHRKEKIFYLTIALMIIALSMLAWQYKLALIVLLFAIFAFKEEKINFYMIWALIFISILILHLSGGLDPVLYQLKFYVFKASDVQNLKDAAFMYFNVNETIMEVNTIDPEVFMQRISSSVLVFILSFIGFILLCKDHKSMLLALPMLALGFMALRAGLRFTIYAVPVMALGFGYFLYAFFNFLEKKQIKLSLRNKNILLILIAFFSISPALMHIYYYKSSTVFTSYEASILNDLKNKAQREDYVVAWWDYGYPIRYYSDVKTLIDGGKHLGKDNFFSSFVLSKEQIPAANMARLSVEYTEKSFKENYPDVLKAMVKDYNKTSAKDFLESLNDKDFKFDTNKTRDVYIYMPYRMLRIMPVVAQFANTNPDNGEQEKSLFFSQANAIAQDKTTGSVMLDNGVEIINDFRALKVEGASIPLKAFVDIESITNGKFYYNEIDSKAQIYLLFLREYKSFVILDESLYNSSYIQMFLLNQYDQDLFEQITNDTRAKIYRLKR
# [4] = system: octa-subunit OST complex from yeast; design: method as in Tai and Imperiali 2001; conditions: ref Tai and Imperiali 2001; cited from earlier work
# [5] = system: octa-subunit OST complex from pig liver; design: method as in Bause et al. 1995; conditions: ref Bause et al. 1995; cited from earlier work
# [6] = substrate: CC(=O)N[C@H]1[C@@H](OP(=O)(O)OP(=O)(O)OCC[C@@H](C)CC/C=C(/C)CC/C=C(\C)CC/C=C(\C)CCC=C(C)C)O[C@H](CO)[C@@H](O[C@@H]2O[C@H](CO)[C@@H](O)[C@H](O)[C@H]2NC(C)=O)[C@@H]1O; assay: Michaelis-Menten kinetics of the LLO analogs; assay type: biochemical, Trypanosoma brucei; conditions: other: 20 nM TbSTT3A, 10 µM acceptor peptide, varying LLO analog concentration; pH 7.5
# Experimental: (§1) Fig. 3. (A) Structure of the LLO analogs synthesized (1a) (S)-Citronellyl-PP-Chitobiose, C10; (1b) farnesyl-PP-chitobiose, C15; (1c) (S)-NerylCitronellyl-PP-chitobiose, C20; (1d) (S)-farnesylCitronellyl-PP-chitobiose, C25. (B) Kinetic analysis of synthetic LLO analogs. Glycosylation experiments were performed with 20 nM purified TbSTT3A, 10 µM […], 10 mM MnCl2, 150 mM NaCl, 20 mM Hepes pH 7.5, 0.035% DDM, 0.007% CHS and different concentrations of synthetic LLO analogs. Data points reflect the mean of 3 separate measurements. Error bars indicate standard deviations. Data were fitted by nonlinear regression according to the Michaelis–Menten formula using PRISM software. This figure is available in black and white in print and in color at Glycobiology online.
# (§2) For Michaelis–Menten kinetics of the LLO analogs, reaction mixtures containing 20 nM TbSTT3A protein, 10 µM peptide P11, 10 mM MnCl2, 150 mM NaCl, 20 mM Hepes pH 7.5, 0.035% DDM and 0.007% CHS were incubated with different concentrations of LLO analogs (10–900 µM, for 1a; 2–60 µM, for 1b; 1–50 µM, for 1c and 1–20 µM, for 1d). Samples were taken at different time points and turnover rates of the reactions were determined as before. Data were fitted by nonlinear regression according to the Michaelis–Menten formula using PRISM software.
# [7] = substrate: CC(=O)N[C@H]1[C@@H](OP(=O)(O)OP(=O)(O)OC/C=C(\C)CC/C=C(\C)CCC=C(C)C)O[C@H](CO)[C@@H](O[C@@H]2O[C@H](CO)[C@@H](O)[C@H](O)[C@H]2NC(C)=O)[C@@H]1O; assay: Michaelis-Menten kinetics of the LLO analogs; assay type: biochemical, Trypanosoma brucei; conditions: other: 20 nM TbSTT3A, 10 µM acceptor peptide, varying LLO analog concentration; pH 7.5
# Experimental: as §1, §2
# [8] = substrate: CC(=O)NC1C(OC2C(CO)OC(OP(=O)(O)OP(=O)(O)OCCC(C)CCC=C(C)CCC=C(C)CCC=C(C)C)C(NC(C)=O)C2O)OC(CO)C(O)C1O; assay: Michaelis-Menten kinetics of the LLO analogs; assay type: biochemical, Trypanosoma brucei; conditions: other: 20 nM TbSTT3A, 10 µM acceptor peptide, varying LLO analog concentration; pH 7.5
# Experimental: as §1, §2
# [9] = substrate: [H][C@@]1(O[C@H]2[C@H](O)[C@@H](NC(C)=O)[C@@H](OP(=O)(O)OP(=O)(O)OCC[C@@H](C)CCC=C(C)C)O[C@@H]2CO)O[C@H](CO)[C@@H](O)[C@H](O)[C@H]1NC(C)=O; assay: Michaelis-Menten kinetics of the LLO analogs; assay type: biochemical, Trypanosoma brucei; conditions: other: 20 nM TbSTT3A, 10 µM acceptor peptide, varying LLO analog concentration; pH 7.5
# Experimental: as §1, §2
molecule,measurement,setting,value
"CC(=O)NC1C(OP(=O)(O)OP(=O)(O)OCC=C(C)CCC=C(C)CCC=C(C)C)OC(CO)C(O)C1O (stereo not shown) [farnesyl-PP-GlcNAc, reference compound]",Effect on ATPase activity of PglK,[1],stimulated ATPase activity
same,Donor substrate for TbSTT3A (glycopeptide product formation),[2],no glycopeptide product was observed
same,Donor substrate for TbSTT3A (glycopeptide product formation),[2]; listed as farnesyl-PP-GlcNac,not recognized as a substrate
same,In vitro substrate of PglB,[3],accepted as an in vitro substrate
Dol-PP-GlcNAc,Recognition as donor substrate in vitro,[4],poor donor
same,Recognition as donor substrate in vitro,[5],poor donor
B1,Km,[6],2.5 ± 0.3 µM
same,Km,[7],5.6 ± 0.8 µM
same,Km,[8],5.3 ± 0.9 µM
same,Km,[9],95 ± 18 µM
